From ChEMBL document CHEMBL1143793, “Solid-phase synthesis of Stat3 inhibitors incorporating O-carbamoylserine and O-carbamoylthreonine as glutamine mimics” (Bioorg Med Chem Lett, 2007)

Biological target: Signal transducer and activator of transcription 3 (Homo sapiens, UniProt P40763)
Assay: Inhibition of Stat3

Signal transducer and activator of transcription 3, sequence (P40763 whole entry): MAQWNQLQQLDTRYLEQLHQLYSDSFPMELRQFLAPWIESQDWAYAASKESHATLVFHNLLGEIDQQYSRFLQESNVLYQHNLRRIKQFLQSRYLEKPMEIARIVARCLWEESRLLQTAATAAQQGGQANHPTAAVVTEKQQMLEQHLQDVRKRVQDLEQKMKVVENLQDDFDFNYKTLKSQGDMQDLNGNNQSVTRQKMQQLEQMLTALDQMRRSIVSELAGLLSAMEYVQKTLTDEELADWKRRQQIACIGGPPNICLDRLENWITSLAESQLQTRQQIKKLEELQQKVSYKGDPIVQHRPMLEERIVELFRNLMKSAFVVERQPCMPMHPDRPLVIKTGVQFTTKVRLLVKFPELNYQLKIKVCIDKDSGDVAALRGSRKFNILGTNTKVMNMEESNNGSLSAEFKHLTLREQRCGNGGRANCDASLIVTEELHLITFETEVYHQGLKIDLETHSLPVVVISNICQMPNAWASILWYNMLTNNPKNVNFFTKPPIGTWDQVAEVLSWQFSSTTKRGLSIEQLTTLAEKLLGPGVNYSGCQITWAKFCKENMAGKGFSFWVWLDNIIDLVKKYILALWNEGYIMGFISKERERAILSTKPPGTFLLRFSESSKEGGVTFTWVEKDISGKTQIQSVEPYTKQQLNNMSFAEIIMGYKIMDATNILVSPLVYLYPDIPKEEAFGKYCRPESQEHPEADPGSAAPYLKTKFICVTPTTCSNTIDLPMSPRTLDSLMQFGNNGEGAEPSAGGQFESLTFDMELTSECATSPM

IC50 [nM] | Compound
850 | CC(C)C[C@H](NC(=O)/C=C/c1ccc(OP(=O)(O)O)cc1)C(=O)N1CCC[C@H]1C(=O)N[C@H](C(=O)NCc1ccccc1)[C@@H](C)OC(N)=O
379 | CC(C)C[C@H](NC(=O)/C=C/c1ccc(OP(=O)(O)O)cc1)C(=O)N1CCC[C@H]1C(=O)N[C@@H](COC(N)=O)C(=O)NCc1ccccc1

Compound | IC50 [nM]
CC(C)C[C@H](NC(=O)/C=C/c1ccc(OP(=O)(O)O)cc1)C(=O)N1CCC[C@H]1C(=O)N[C@@H](CCC(N)=O)C(=O)NCc1ccccc1 | 135
